By IC50 is commonly meant the point on the concentration scale where inhibition reaches its midpoint.

A value given as a limit tells only on which side of the number the result lay.

This assay has as its system CHK2 phosphorylation (phospho-Thr68) in HCT116 cells. The experiment in a line: Cellular pCHK2 assay, bleomycin-induced phosphorylation of CHK2 (phospho-Thr68), immunofluorescence high content. It is filed as cell-based. To be noted: Homo sapiens, HCT-116; HCT116 cells, 10 μM bleomycin, 4 h; read-out: IC50 (pCHK2). From the text: For the identification of substances which inhibit the phosphorylation of the protein kinase CHK2 at the amino acid threonine 68, an immunofluorescence-based “high content” analysis assay was used in HCT116 cells.
In vitro cell-based immunofluorescence assay for the identification of inhibitors of bleomycin-induced phosphorylation of CHK2 (phospho-Thr68) in the human colon carcinoma cell line HCT116:
HCT116 cells are sown out in a defined cell density in 384-well plates in culture medium (DMEM high glucose, 2 mM GlutaMax, 1 mM Na pyruvate, 10% FCS) and incubated overnight at 37° C. and 10% of CO2. On the following day, the test substances are added in a defined concentration range (1 nM to 30 μM) in combination with 10 μM bleomycin, where the concentration of the solvent DMSO is kept constant at 0.5%. After incubation for four hours at 37° C. and 10% of CO2, the cells are fixed (5 min, 4% formaldehyde in PBS), permeabilised (10 min, 0.2% Triton X-100 in PBS) and, after blocking of nonspecific binding sites (10% goat serum, 1% BSA in PBS), incubated overnight at 4° C. with a specific anti-pCHK2 antibody (cell signalling #2661). pCHK2 (Thr68) is determined using an Alexa488-labelled secondary anti-rabbit IgG antibody. Parallel staining of DNA with propidium iodide enables determination of the cell count. The pCHK2 signal is detected using a high-content imager (Molecular Devices IMX Ultra) and automatic image analysis using the MetaXpress software belonging to the instrument. The number of cell nuclei which have a pCHK2 signal above a defined background is determined.
With `COc1cc2ncc3c(c2cc1-c1cn(C)nn1)n(-c1cn(C)nc1C)c(=O)n3C` [Compound Example 42, 1-(1,3-Dimethyl-1H-pyrazol-4-yl)-7-methoxy-3-methyl-8-(1-methyl-1H-1,2,3-triazol-4-yl)-1,3-dihydroimidazo-[4,5-c]quinolin-2-one], the half-maximal inhibitory concentration (IC50) is 0.2 to 1 µM. For the molecule `COc1cc2ncc3c(c2cc1-c1cnn(C)c1)n(-c1ccc(C#N)cn1)c(=O)n3C` [Compound Example 48, 6-[7-Methoxy-3-methyl-8-(1-methyl-1H-pyrazol-4-yl)-2-oxo-2,3-dihydroimidazo-[4,5-c]quinolin-1-yl]-nicotinonitrile], the half-inhibitory concentration (IC50) lay in the range of 0.2 to 1 µM. For `COc1cc2ncc3c(c2cc1-c1cc(N)n[nH]1)n(-c1ncccc1F)c(=O)n3C` [compound 65, 8-(3-Amino-1H-pyrazol-5-yl)-1-(3-fluoro-2-pyridyl)-7-methoxy-3-methyl-imidazo-[4,5-c]quinolin-2-one] the value was 0.2 to 1 µM; for `COc1cc2ncc3c(c2cc1-c1cnn(C)c1)n(-c1ccc2ccccc2n1)c(=O)n3C` [compound 68, 7-Methoxy-3-methyl-8-(1-methyl-1H-pyrazol-4-yl)-1-quinolin-2-yl-1,3-dihydro-imidazo[4,5-c]quinolin-2-one], 1 to 2 µM; for `COc1cc2ncc3c(c2cc1-c1n[nH]cc1C)n(-c1cn(C)nc1C)c(=O)n3C` [compound 151, 1-(1,3-Dimethyl-1H-pyrazol-4-yl)-7-methoxy-3-methyl-8-(4-methyl-1H-pyrazol-3-yl)-1,3-dihydroimidazo[4,5-c] quinolin-2-one], less than 0.2 µM. Under `CNCCOc1cnc(-n2c(=O)n(C)c3cnc4cc(OC)c(-c5cnn(C)c5)cc4c32)c(F)c1` [compound 206] stands 0.2 to 1 µM. Under `COc1cc2ncc3c(c2cc1-c1cnn(C)c1)n(-c1ncc(Cl)cc1F)c(=O)n3C` [compound 119, 1-(5-Chloro-3-fluoropyridin-2-yl)-7-methoxy-3-methyl-8-(1-methyl-1H-pyrazol-4-yl)-1,3-dihydroimidazo[4,5-c]-quinolin-2-one] stands less than 0.2 µM; under `[2H]C([2H])([2H])Oc1cncc(F)c1-n1c(=O)n(C)c2cnc3cc(OC)c(-c4cn(C)nc4C)cc3c21` [compound 150, 8-(1,3-Dimethylpyrazol-4-yl)-1-[3-fluoro-5-(trideuterio-methoxy)-4-pyridyl]-7-methoxy-3-methyl-imidazo-[4,5-c]quinolin-2-one], less than 0.2 µM. With `COc1cc2ncc3c(c2cc1-c1cnn(C)c1)n(-c1ncc(OCC2CN(C)C2)cc1F)c(=O)n3C` [compound 207, 1-[3-Fluoro-5-(1-methyl-azetidin-3-ylmethoxy)-pyridin-2-yl]-7-methoxy-3-methyl-8-(1-methyl-1H-pyrazol-4-yl)-1,3-dihydro-imidazo[4,5-c]quinolin-2-one], the concentration for half-maximal inhibition (IC50) fell in the range of 0.2 to 1 µM. Turning to `COc1cc2ncc3c(c2cc1-c1cnc2nc(C)[nH]c2c1)n(-c1c(F)cncc1OC)c(=O)n3C` [compound 152, 1-(3-Fluoro-5-methoxy-pyridin-4-yl)-7-methoxy-3-methyl-8-(2-methyl-1H-imidazo[4,5-b]pyridin-6-yl)-1,3-dihydroimidazo[4,5-c]-quinolin-2-one], the 50% inhibitory concentration (IC50) is less than 0.2 µM. With `COc1cc2ncc3c(c2cc1-c1cnn(C)c1)n(-c1c(F)cncc1OCF)c(=O)n3C` [compound 148], the IC50 is less than 0.2 µM.

As for `COc1cc2ncc3[nH]c(=O)n(-c4ncc(F)cc4F)c3c2cc1-c1cnn(C)c1` [compound 107, 1-(3,5-Difluoropyridin-2-yl)-7-methoxy-8-(1-methyl-1H-pyrazol-4-yl)-1,3-dihydro-imidazo[4,5-c]quinolin-2-one], the concentration for half-maximal inhibition (IC50) is 0.2 to 1 µM. `CCn1cc(-n2c(=O)n(C)c3cnc4cc(OC)c(-c5cn(C)nc5C)cc4c32)c(C)n1` [compound 135, 8-(1,3-Dimethyl-1H-pyrazol-4-yl)-1-(1-ethyl-3-methyl-1H-pyrazol-4-yl)-7-methoxy-3-methyl-1,3-dihydro-imidazo[4,5-c]quinolin-2-one]: the 50% inhibitory concentration (IC50) fell in the range of 0.2 to 1 µM. In the case of `COc1cc2ncc3c(c2cc1-c1cnn(C)c1)n(-c1ccc2cc[nH]c2n1)c(=O)n3C` [compound 69, 7-Methoxy-3-methyl-8-(1-methyl-1H-pyrazol-4-yl)-1-(1H-pyrrolo[2,3-b]pyridin-6-yl)1,3-dihydroimidazo-[4,5-c]quinolin-2-one], the half-maximal inhibitory concentration (IC50) is 0.2 to 1 µM.

As to `CCn1cc(-c2cc3c(cc2OC)ncc2c3n(-c3ncc(OC)cc3F)c(=O)n2C)cn1` [compound 111, 8-(1-Ethyl-1H-pyrazol-4-yl)-1-(3-fluoro-5-methoxy-pyridin-2-yl)-7-methoxy-3-methyl-1,3-dihydroimidazo-[4,5-c]quinolin-2-one], the 50% inhibitory concentration (IC50) was in the range of 0.2 to 1 µM. As for `COc1cc2ncc3c(c2cc1-c1cnn[nH]1)n(-c1c(F)cncc1OC)c(=O)n3C` [compound 134, 1-(3-Fluoro-5-methoxy-pyridin-4-yl)-7-methoxy-3-methyl-8-(3H-1,2,3-triazol-4-yl)-1,3-dihydroimidazo-[4,5-c]quinolin-2-one], the IC50 was in the range of 0.2 to 1 µM. In the case of `COc1cnc(-n2c(=O)n(C)c3cnc4cc(OC)c(-c5cn(C)nc5C)cc4c32)c(F)c1` [compound 106, 8-(1,3-Dimethyl-1H-pyrazol-4-yl)-1-(3-fluoro-5-methoxypyridin-2-yl)-7-methoxy-3-methyl-1,3-dihydroimidazo[4,5-c]-quinolin-2-one], the IC50 was 0.2 to 1 µM. Under `COc1cnc(-n2c(=O)n(C)c3cnc4cc(OC)c(-c5cnn[nH]5)cc4c32)c(F)c1` [compound 128, 1-(3-Fluoro-5-methoxy-pyridin-2-yl)-7-methoxy-3-methyl-8-(3H-1,2,3-triazol-4-yl)-1,3-dihydroimidazo-[4,5-c]quinolin-2-one] stands 0.2 to 1 µM; under `COc1cc2ncc3c(c2cc1-c1cnn(C2CNC2)c1)n(-c1c(F)cncc1OC)c(=O)n3C` [compound 208, 8-[1-(Azetidin-3-yl)-1H-pyrazol-4-yl]-1-(3-fluoro-5-methoxypyridin-4-yl)-7-methoxy-3-methyl-1H,2H,3H-imidazo[4,5-c]-quinolin-2-one], 1 to 2 µM. `COc1cnc(-n2c(=O)n(C)c3cnc4cc(OC)c(-c5ccc6nc(C)[nH]c6c5)cc4c32)c(F)c1` [compound 144, 1-(3-Fluoro-5-methoxy-pyridin-2-yl)-7-methoxy-3-methyl-8-(2-methyl-3H-benzoimidazol-5-yl)-1,3-dihydroimidazo[4,5-c]-quinolin-2-one]: the IC50 fell in the range of 0.2 to 1 µM. For `COc1cnc(-n2c(=O)n(C)c3cnc4cc(OC)c(-c5cn(C)nn5)cc4c32)c(F)c1` [compound 133, 1-(3-Fluoro-5-methoxy-pyridin-2-yl)-7-methoxy-3-methyl-8-(1-methyl-1H-1,2,3-triazol-4-yl)-1,3-dihydroimidazo[4,5-c] quinolin-2-one] the value was 0.2 to 1 µM. Under `COc1cnc(-n2c(=O)n(C)c3cnc4cc(OC)c(-c5ccn[nH]5)cc4c32)c(F)c1` [compound 109, 1-(3-Fluoro-5-methoxy-pyridin-2-yl)-7-methoxy-3-methyl-8-(2H-pyrazol-3-yl)-1,3-dihydroimidazo[4,5-c] quinolin-2-one] stands less than 0.2 µM; under `COc1cc2ncc3[nH]c(=O)n(-c4c(F)cncc4OC)c3c2cc1-c1cnn(C)c1` [compound 116, 1-(3-Fluoro-5-methoxy-pyridin-4-yl)-7-methoxy-8-(1-methyl-1H-pyrazol-4-yl)-1,3-dihydroimidazo[4,5-c]-quinolin-2-one], 1 to 2 µM; under `COc1cc2ncc3[nH]c(=O)n(-c4c(F)cncc4OC)c3c2cc1-c1cn(C)nc1C` [compound 129, 8-(1,3-Dimethyl-1H-pyrazol-4-yl)-1-(3-fluoro-5-methoxy-pyridin-4-yl)-7-methoxy-1,3-dihydroimidazo[4,5-c]-quinolin-2-one], 1 to 2 µM. For `COc1cc2ncc3c(c2cc1-c1cnn(C)c1)n(-c1ccncc1C1CC1)c(=O)n3C` [compound 200, 1-(3-Cyclopropylpyridin-4-yl)-7-methoxy-3-methyl-8-(1-methyl-1H-pyrazol-4-yl)-1,3-dihydroimidazo[4,5-c] quinolin-2-one] the value was 0.2 to 1 µM; for `COc1cc2ncc3c(c2cc1-c1cnc2nc(C)[nH]c2c1)n(-c1cn(C)nc1C)c(=O)n3C` [compound 154, 1-(1,3-Dimethyl-1H-pyrazol-4-yl)-7-methoxy-3-methyl-8-(2-methyl-1H-imidazo[4,5-b]pyridin-6-yl)-1,3-dihydro-imidazo[4,5-c]quinolin-2-one], 1 to 2 µM. With `CCOc1cnc(-n2c(=O)n(C)c3cnc4cc(OC)c(-c5cnn(C)c5)cc4c32)c(F)c1` [compound 113, 1-(5-Ethoxy-3-fluoropyridin-2-yl)-7-methoxy-3-methyl-8-(1-methyl-1H-pyrazol-4-yl)-1,3-dihydroimidazo[4,5-c]-quinolin-2-one], the IC50 is less than 0.2 µM. Under `CCc1cnccc1-n1c(=O)n(C)c2cnc3cc(OC)c(-c4cnn(C)c4)cc3c21` [compound 156, 1-(3-Ethylpyridin-4-yl)-7-methoxy-3-methyl-8-(1-methyl-1H-pyrazol-4-yl)-1,3-dihydroimidazo[4,5-c] quinolin-2-one] stands 0.2 to 1 µM.

Source of the values: patent publication US10745399B2 (priority 2015, dated 2020).
